The values that follow come from the NIST ThermoML archive (doi:10.1016/j.tca.2017.09.023).

The conditions of data set [1]: for Normal melting temperature: DTA; for Triple point temperature: DSC.
The nature of data set [2]: Molar enthalpy of transition or fusion. The conditions noted are these: DSC.

Values joined by “and” are separate entries in the source; they are usually repeats but may differ in a detail not shown here. Identical values can stand only once. ± gives the expanded uncertainty stated by the source.

For the compound `c1ccc(-c2ccccc2-c2ccccc2)cc1` [o-terphenyl], in data set [1] (Crystal), the Normal melting temperature was 57.2 ± 2 °C.
Take `Clc1c(Cl)c(Cl)c(Cl)c(Cl)c1Cl` [hexachlorobenzene]: the Normal melting temperature in data set [1] (Crystal) was 230.1 ± 2 °C and 231 ± 1.1 °C. In data set [2] (Crystal), the “Molar enthalpy of transition or fusion” value turned out to be 5.72 ± 0.311 kcal/mol.
As for `Nc1c(Cl)c(Cl)c(Cl)c(Cl)c1Cl` [pentachlorobenzenamine], in data set [1] (Crystal), the Normal melting temperature is 235.4 ± 1.1 °C. Further, the “Molar enthalpy of transition or fusion” value in data set [2] (Crystal) came out at 4.42 ± 0.311 kcal/mol.
With `Cc1c(C)c(C)c(Br)c(C)c1C` [bromopentamethylbenzene], the Normal melting temperature in data set [1] (Crystal 1) was determined as 163.0 ± 1.1 °C. Besides, the Triple point temperature in data set [1] (Crystal 2) is on record as 411.6 ± 1.2 K. The “Molar enthalpy of transition or fusion” value worked out at 1.03 ± 0.335 kcal/mol in data set [2] (Crystal 2) and 3.61 ± 0.359 kcal/mol in data set [2] (Crystal).
As for `Cc1c(C)c(C)c(C)c(C)c1C` [hexamethylbenzene], in data set [1] (Crystal 1), the Normal melting temperature was 166.1 ± 1.1 °C and 167.5 ± 2 °C. For the same compound, the Triple point temperature in data set [1] (Crystal 2) amounted to 384.9 ± 1.2 K; in data set [1] (Crystal 3), 117.4 ± 1.2 K. Also, the “Molar enthalpy of transition or fusion” value in data set [2] (Crystal 2) turned out to be 0.399 ± 0.335 kcal/mol; in data set [2] (Crystal 3) it was 0.136 ± 0.335 kcal/mol; in data set [2] (Crystal), 4.91 ± 0.359 kcal/mol.
